From patent US9701709B2 (REATA PHARMACEUTICALS, INC., priority 2012, dated 2017)
Where two headings read alike, the source gives them in different places.

Assays:
[1] = tested on: human NQO1 ARE (Nrf2) in HuH-7 human hepatoma cells; test: NQO1-ARE luciferase reporter in HuH-7; type: cell-based; settings: for Concentration required to increase transcription from the NQO1 ARE by 2-fold: HuH-7, 18 h
Excerpt: The first luciferase reporter tested was under the control of a single ARE derived from the promoter of the human NQO1 gene, which allows for quantitative assessment of the endogenous activity of the Nrf2 transcription factor in cultured mammalian cells. […] The NQO1-ARE-luciferase reporter plasmid was constructed by inserting the human NQO1-ARE ([NT] ID NO: 31) into the pLuc-MCS vector using HindIII/XhoI cloning sites (GenScript Corp., Piscataway, N.J.). […] Firefly and Renilla luciferase activity was assayed by Dual-Glo Luciferase Assay (cat # E2920, Promega), and the luminescence signal was measured on an L-Max II luminometer (Molecular Devices). Firefly luciferase activity was normalized to the Renilla activity, and fold induction over a vehicle control (DMSO) of normalized Firefly activity was calculated. […] Values represent the average of three independent experiments.

[2] = tested on: NF-κB in NIH3T3/NF-κB-luc cell line; test: NF-κB luciferase reporter in NIH3T3/NF-κB-luc; type: cell-based; settings: Mus musculus
Excerpt: (b) TNF-α-induced activation of an NF-κB luciferase reporter in the mouse NIH3T3 cell line.
(§1) NF-κB is a transcription factor that plays a central role in the regulation of many immune and inflammatory responses. […] The NIH3T3/NF-κB-luc cell line maintains a chromosomal integration of a Firefly luciferase reporter construct regulated by eight copies of the NF-κB response element. The effects of these compounds can be quantified by measuring the value of the NF-κB IC50.

[3] = tested on: TNF-α-induced NF-κB activation in A549/NF-κB-Luc cells; test: TNF-α-induced NF-κB luciferase reporter in A549/NF-κB-Luc; type: cell-based; settings: Homo sapiens
Excerpt: (b) TNF-α-induced activation of an NF-κB luciferase reporter in the human A549 cell line.
as §1

MRP-1 = MRP-1 (Homo sapiens, UniProt P33527); test: in vitro; settings: not told
MRP-1, sequence (P33527 whole entry): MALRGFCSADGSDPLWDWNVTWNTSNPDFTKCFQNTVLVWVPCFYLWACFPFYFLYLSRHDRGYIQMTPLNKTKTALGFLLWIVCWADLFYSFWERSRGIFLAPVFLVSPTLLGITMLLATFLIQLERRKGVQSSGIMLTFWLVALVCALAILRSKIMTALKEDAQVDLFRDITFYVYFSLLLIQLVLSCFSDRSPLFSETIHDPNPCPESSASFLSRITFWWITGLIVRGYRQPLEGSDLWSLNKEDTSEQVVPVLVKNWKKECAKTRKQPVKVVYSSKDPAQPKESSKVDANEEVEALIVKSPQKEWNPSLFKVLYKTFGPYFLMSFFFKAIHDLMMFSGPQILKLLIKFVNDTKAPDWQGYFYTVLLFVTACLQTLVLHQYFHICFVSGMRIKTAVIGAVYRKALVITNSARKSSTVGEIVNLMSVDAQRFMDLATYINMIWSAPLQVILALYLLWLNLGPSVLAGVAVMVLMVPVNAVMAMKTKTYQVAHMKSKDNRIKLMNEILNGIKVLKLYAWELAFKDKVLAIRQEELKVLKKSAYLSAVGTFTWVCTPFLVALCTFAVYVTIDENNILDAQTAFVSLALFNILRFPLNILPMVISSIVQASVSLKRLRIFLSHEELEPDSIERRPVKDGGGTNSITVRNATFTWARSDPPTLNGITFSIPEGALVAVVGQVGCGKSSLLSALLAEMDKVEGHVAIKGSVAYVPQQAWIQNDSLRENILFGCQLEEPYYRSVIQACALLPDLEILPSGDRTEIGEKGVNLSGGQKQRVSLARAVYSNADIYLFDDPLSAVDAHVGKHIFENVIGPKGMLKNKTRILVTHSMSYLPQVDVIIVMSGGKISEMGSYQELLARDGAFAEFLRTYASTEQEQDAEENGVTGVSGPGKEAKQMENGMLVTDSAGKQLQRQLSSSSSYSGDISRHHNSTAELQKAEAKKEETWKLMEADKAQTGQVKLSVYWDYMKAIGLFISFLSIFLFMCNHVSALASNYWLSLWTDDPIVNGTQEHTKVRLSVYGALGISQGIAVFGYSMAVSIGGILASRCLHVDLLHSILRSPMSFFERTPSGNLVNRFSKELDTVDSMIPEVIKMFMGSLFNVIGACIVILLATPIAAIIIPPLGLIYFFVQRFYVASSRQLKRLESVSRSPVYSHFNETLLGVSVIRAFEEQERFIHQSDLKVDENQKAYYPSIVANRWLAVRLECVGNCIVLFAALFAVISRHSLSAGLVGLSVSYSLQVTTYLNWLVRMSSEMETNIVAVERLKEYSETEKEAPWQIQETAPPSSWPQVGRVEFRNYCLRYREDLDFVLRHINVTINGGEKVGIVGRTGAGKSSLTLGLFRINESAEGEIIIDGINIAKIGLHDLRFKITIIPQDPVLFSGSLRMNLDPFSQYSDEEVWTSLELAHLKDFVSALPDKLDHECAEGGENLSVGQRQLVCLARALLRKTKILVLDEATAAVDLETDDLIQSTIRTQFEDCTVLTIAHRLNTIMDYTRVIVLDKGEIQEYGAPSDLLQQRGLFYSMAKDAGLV

[4] = tested on: rat GSTA2 ARE (Nrf2) in AREc32 reporter cell line; test: GSTA2-ARE luciferase reporter in AREc32; settings: 4-fold GSTA2-ARE induction
[5] = tested on: LPS-induced NO (plasma NOx, Griess Reaction); test: Suppression of NO in vivo after LPS in CD-1 mice; design: species or system mouse; settings: LPS 5 mg/kg 24 h later
Procedure: FIG. 51—Dose-dependent suppression of NO in vivo by 63415. CD-1 mice (n=6) were dosed with DMSO or […] by oral gavage. LPS (5 mg/kg) was administered 24 h later. Twenty-four hours after LPS administration, whole blood was collected for NO assay. NO inhibition was determined by Griess Reaction from reduced, de-proteinated plasma.

[6] = Distribution into mouse tissues after PO QD×3; type: in vivo; settings: mice PO QD×3 25 mg/kg, 6 h after last dose, semi-quantitative
Procedure: Semi-quantitative analysis of drug content was performed.

NQO1 activity = NQO1 activity induction in mouse liver, lung, and kidney after PO QD×3; type: in vivo; settings: mice PO QD×3 25 mg/kg, 6 h after last dose
Procedure: FIG. 53—NQO1 activity induction in mouse liver, lung, and kidney by 63415. Mice were dosed PO QD×3 with 25 mg/kg. Tissues were collected 6 h after the last dose, and analysis of NQO1 activity was performed.

[7] = Dynamic vapor sorption (hygroscopicity); type: physicochemical
Procedure: Projekt Messtechnik Sorptions Prüfsystem SPS 11-100n or Surface Measurement Systems DVS-1. The sample was placed on an aluminum or platinum holder on top of a microbalance and allowed to equilibrate for 2 h at 50% r.h. before starting the pre-defined humidity program: • (1) 50→0% r.h. (5%/h); 5 h at 0% r.h. • (2) 0→95% r.h. (5%/h); 5 h at 95% r.h. • (3) 95→50% r.h. (5%/h); 2 h at 50% r.h.

[8] = Polymorph screen: crystallization and drying experiments (FT-Raman, PXRD, TG-FTIR, DSC); type: physicochemical
Procedure: A preformulation and polymorphism study was performed for compound 63415. […] A total of 30 crystallization experiments, including phase equilibrations, drying experiments and other techniques, were carried out. All obtained solids were characterized by FT-Raman spectroscopy. All new forms were characterized by PXRD and TG-FTIR, and optionally by DSC and DVS.
All obtained materials were characterized by FT-Raman spectroscopy; selected samples were also characterized by PXRD.
Suspension equilibration experiments were carried out in one solvent and eleven solvent mixtures (Table 13). Suspensions of ˜100 mg of PP415-P1 in 0.2-2.0 mL of the selected solvents were prepared and shaken for 4-15 days at 22-24° C. The solids were recovered and characterized by FT-Raman spectroscopy; most were characterized also by PXRD.
Hot solutions of PP415-P1 were prepared in one solvent and four solvent mixtures (Table 14). […] In two cases (-P22, -P23) no solid precipitated, even after storage at 4-5° C. for two days. Here, the solvent was evaporated under N2 flow at r.t. The solids were recovered and characterized by FT-Raman spectroscopy and for those with spectra different from the amorphous starting material, FT-Raman class 1, also by PXRD.
Clear solutions of PP415-P1 were prepared in three solvent mixtures (Table 15). The solvents were then slowly evaporated at r.t. under ambient conditions. However, in two of the three experiments (-P15 and -P17) white solid precipitated before evaporation began. The obtained solids were examined by FT-Raman spectroscopy and PXRD.
At least one sample of each class was dried under vacuum with the aim to desolvate the solvates and to obtain non-solvated crystalline forms of 63415 (Table 16). The dried materials were characterized further by FT-Raman, PXRD, and TG-FTIR.
Bruker RFS100 with OPUS 6.5 software; Nd:YAG 1064-nm excitation, Ge detector, 3500-100 cm^−1 range; typical measurement conditions: 100-300 mW nominal laser power, 64-128 scans, 2 cm^−1 resolution.
Stoe Stadi P; Mythen1K Detector; Cu—Kα radiation; standard measurement conditions: transmission; 40 kV and 40 mA tube power; curved Ge monochromator; 0.02°2θ step size, 12 s or 60 s step time, 1.5-50.5°2θ or 1.0-55°2θ scanning range; detector mode: step scan; 1°2θ or 6°2θ detector step; standard sample preparation: 10 to 20 mg sample was placed between two acetate foils; sample holder: Stoe transmission sample holder; the sample was rotated during the measurement.
Netzsch Thermo-Microbalance TG 209 with Bruker FT-IR Spectrometer Vector 22; aluminum crucible (with microhole), N2 atmosphere, 10 K/min heating rate, 25-250° C. or 25-350° C. range.
Perkin Elmer DSC 7; gold crucibles (closed or with microhole), sample filled in an N2 environment, 10 K/min heating rate, −50 to 250° C. or 350° C. range, at times quench cooling (at −200 K/min) to −50° C. between scans.

[9] = not viability normalized, read-out: NIH3T3/NF-κB IC50
[10] = viability normalized, read-out: NIH3T3/NF-κB IC50, normalized for viability
[11] = not viability normalized, read-out: NF-κB IC50, human A549 cell line (further experimentation)
[12] = read-out: NF-κB IC50, human A549 cell line, viability normalized

Structure (SMILES)	Concentration required to increase transcription from the NQO1 ARE by 2-fold [1] [nM]	IC50 [2, 9] [nM]	IC50 [2, 10] [nM]	IC50 [3, 11] [nM]	IC50 [3, 12] [nM]	efflux ratio (MRP-1)	Fold increase in amount of compound needed compared to RTA 402 for the same activity [4] [fold]	other results
CC(=O)N[C@]12CCC(C)(C)C[C@H]1[C@H]1C(=O)C=C3[C@@]4(C)C=C(C#N)C(=O)C(C)(C)[C@@H]4CC[C@@]3(C)[C@]1(C)CC2 [Compound 63170]	25.2	1100	1100	1000	1100	10	3.40	–
CC1(C)CC[C@]2(NC(=O)C(F)(F)F)CC[C@]3(C)[C@H](C(=O)C=C4[C@@]5(C)C=C(C#N)C(=O)C(C)(C)[C@@H]5CC[C@]43C)[C@@H]2C1 [Compound 63171]	–	1700	1800	2000	2100	11.2	2.65	–
CC1(C)CC[C@]2(NC(=O)CC(F)(F)F)CC[C@]3(C)[C@H](C(=O)C=C4[C@@]5(C)C=C(C#N)C(=O)C(C)(C)[C@@H]5CC[C@]43C)[C@@H]2C1 [Compound 63179]	29.1	200	600	1400	1500	56.5	6.05	–
CCC(=O)N[C@]12CCC(C)(C)C[C@H]1[C@H]1C(=O)C=C3[C@@]4(C)C=C(C#N)C(=O)C(C)(C)[C@@H]4CC[C@@]3(C)[C@]1(C)CC2 [Compound 63189]	14.9	1100	1000	1100	1200	57.1	3.47	–
CC1(C)CC[C@]2(CO)CC[C@]3(C)[C@H](C(=O)C=C4[C@@]5(C)C=C(C#N)C(=O)C(C)(C)[C@@H]5CC[C@]43C)[C@@H]2C1 [Compound 63355]	–	–	–	–	–	–	–	NQO1-ARE (fold at 62.5 nM in HuH7) ([1]; 62.5 nM): 6.5 ± 0.9 fold
CCNC(=O)[C@]12CCC(C)(C)C[C@H]1[C@H]1C(=O)C=C3[C@@]4(C)C=C(C#N)C(=O)C(C)(C)[C@@H]4CC[C@@]3(C)[C@]1(C)CC2 [RTA 405, reference compound]	–	–	–	–	–	–	–	NOx Levels (% vs LPS Controls) ([5]; 13 mg/kg oral gavage): 44%; NOx Levels (% vs LPS Controls) ([5]; 25 mg/kg oral gavage): 26%; NOx Levels (% vs LPS Controls) ([5]; 50 mg/kg oral gavage): 18%; concentration at 6 h ([6]; brain, read-out: Drug content, Brain): 93 nM; concentration at 6 h ([6]; kidney, read-out: Drug content, Kidney): 2360 nM; concentration at 6 h ([6]; liver, read-out: Drug content, Liver): 1140 nM; concentration at 6 h ([6]; lung, read-out: Drug content, Lung): 1630 nM; concentration at 6 h ([6]; plasma, read-out: Drug content, Plasma): 130 nM; concentration at 6 h ([6]; whole blood, read-out: Drug content, Whole Blood): 1160 nM; NQO1 activity induction, Kidney (NQO1 activity): 8.25; NQO1 activity induction, Liver (NQO1 activity): 1.93; NQO1 activity induction, Lung (NQO1 activity): 1.48
CC1(C)CC[C@]2(NC(=O)C(C)(F)F)CC[C@]3(C)[C@H](C(=O)C=C4[C@@]5(C)C=C(C#N)C(=O)C(C)(C)[C@@H]5CC[C@]43C)[C@@H]2C1 [desolvated class 4]	–	–	–	–	–	–	–	DVS: hygroscopicity class [7]: DVS: slightly hygroscopic; Δm = (mass increase <2% but ≧0.2%); DVS: total mass gain from 0% r.h. to 95% r.h. ([7]; 0% r.h. to 95% r.h.): mass gain of 2.1 wt.-% from 0%; DVS: Δm (50%→85% r.h.) ([7]; 50%→85% r.h., listed as PP415-P37): +0.7% (50%→85% r.h.); total; post-DVS Raman and/or PXRD: solid form ([7]; after DVS, listed as PP415-P37): to class 4; Hygroscopicity classification (DVS) ([7]; mass gain at 85% r.h.): slightly hygroscopic (mass increase <2% but ≧0.2%); DSC: no decomposition up to [8]: no decomposition up to 270 °C; TG-FTIR: mass loss (solvent) ([8]; first or main loss, solvent and temperature range per sample as printed): TG-FTIR: loss of ~0.9 wt.-%; TG-FTIR: decomposition at T ([8]; listed as PP415-P37): decomposition at T > 280 °C
